{
  "source": "patent US10399933B2",
  "about": "“Inhibitors of indoleamine-2,3-dioxygenase for the treatment of cancer” (BRISTOL-MYERS SQUIBB COMPANY, priority 2015, dated 2019)",
  "target": "human IDO1 (Homo sapiens, UniProt P14902)",
  "sequence (P14902 whole entry)": "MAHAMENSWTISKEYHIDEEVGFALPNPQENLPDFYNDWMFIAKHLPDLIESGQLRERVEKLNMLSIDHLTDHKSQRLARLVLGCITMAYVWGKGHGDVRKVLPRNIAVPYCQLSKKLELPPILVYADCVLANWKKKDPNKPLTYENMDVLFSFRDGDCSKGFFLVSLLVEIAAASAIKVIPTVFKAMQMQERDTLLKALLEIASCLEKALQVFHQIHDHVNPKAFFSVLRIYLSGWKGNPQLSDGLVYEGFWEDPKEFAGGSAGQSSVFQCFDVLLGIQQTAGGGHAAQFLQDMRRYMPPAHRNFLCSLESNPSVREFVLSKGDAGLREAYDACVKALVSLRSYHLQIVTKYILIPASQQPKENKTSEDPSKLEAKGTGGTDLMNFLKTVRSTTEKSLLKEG",
  "experiment": "Human IDO-1 inhibitory activity in HEK cells (human IDO1/HEK293 cellular assay)",
  "format": "cell-based",
  "parameters": "expressed in transfected cells",
  "conditions": "HEK human IDO-1 cellular assay; 500 nM reference standard = 100% inhibition, DMSO = 0%",
  "method": "They were cultured in medium (DMEM with 10% FBS) containing 1 mg/ml G418 for two weeks.\nThe human IDO1/HEK293 cells were seeded at 10,000 cells per 50 μL per well with RPMI/phenol red free media contains 10% FBS in a 384-well black wall clear bottom tissue culture plate (Matrix Technologies LLC) 100 nL of certain concentration of compound was then added to each well using ECHO liquid handling systems. The cells were incubated for 20 hours in 37° C. incubator with 5% CO2.\nThe compound treatments were stopped by adding trichloroacetic acid (Sigma-Aldrich) to a final concentration at 0.2%. The cell plate was further incubated at 50° C. for 30 minute. The equal volume supernatant (20 μL) and 0.2% (w/v) Ehrlich reagent (4-dimethylaminobenzaldehyde, Sigma-Aldrich) in glacial acetic acid were mixed in a new clear bottom 384-well plate. This plate was then incubated at room temperature for 30 minute. The absorbance at 490 nm was measured on Envision plate reader.",
  "data": [
    {"compound": "CCCOc1ncc(Nc2cc(C(CC)CC(=O)O)ccc2N(CC(C)C)C2CCCCC2)cn1", "note": "(single isomer, unassigned) [Example 654, 3-(4-(cyclohexyl(isobutyl)amino)-3-((2-propoxypyrimidin-5-yl)amino)phenyl)pentanoic acid]", "values": [
      {"measurement": "IC50", "result": "< 0.005", "unit": "µM"}
    ]},
    {"compound": "CCCN(CC1CC1)c1ccc(C(CC)CC(=O)O)cc1Nc1ccc(Cl)cc1", "note": "(single isomer, unassigned) [Example 656 E2, 3-(3-((4-Chlorophenyl)amino)-4-((cyclopropylmethyl) (propyl)amino)phenyl)pentanoic Acid]", "values": [
      {"measurement": "IC50", "result": "< 0.005", "unit": "µM"}
    ]},
    {"compound": "CCC(CC(=O)O)c1ccc(N2C[C@@H]3C[C@H]2CN3Cc2ccccc2)c(Nc2ccc(C)cc2)c1", "note": "(single isomer, unassigned) [Example 666 E2]", "values": [
      {"measurement": "IC50", "result": "< 0.005", "unit": "µM"}
    ]},
    {"compound": "CCC(CC(=O)O)c1ccc(N(CC(C)C)C(C)C)c(Nc2ccc3nc(C)sc3c2)c1", "note": "(single isomer, unassigned) [Example 730, 3-(4-(isobutyl(isopropyl)amino)-3-((2-methylbenzo[d]thiazol-6-yl)amino)phenyl)pentanoic acid]", "values": [
      {"measurement": "IC50", "result": "> 0.05", "unit": "µM"}
    ]},
    {"compound": "CCC(CC(=O)O)c1ccc(N2CCC[C@H]2C(C)(C)F)c(NC(=O)Nc2ccc(OC)cc2F)c1", "note": "(single isomer, unassigned) [Example 793]", "values": [
      {"measurement": "IC50", "result": "> 0.05", "unit": "µM"}
    ]},
    {"compound": "CCC(CC(=O)O)c1ccc(N2CCC[C@H]2C(C)(C)O)c(NC(=O)Nc2cc(C)on2)c1", "note": "(single isomer, unassigned) [Example 831]", "values": [
      {"measurement": "IC50", "result": "> 0.05", "unit": "µM"}
    ]},
    {"compound": "Cc1ccc(CC(=O)Nc2cc(C(C)CC(=O)O)ccc2N(CC(C)C)C2CCOCC2)cc1", "note": "(single isomer, unassigned) [Example 967, 3-(4-(Isobutyl(tetrahydro-2H-pyran-4-yl)amino)-3-(2-(p-tolyl)acetamido)phenyl)butanoic Acid]", "values": [
      {"measurement": "IC50", "result": "< 0.05", "unit": "µM"}
    ]},
    {"compound": "CCC(CC(=O)O)c1cc(F)c(N(CC(C)C)CC(C)C)c(NC(=O)Cc2ccc(Cl)cc2F)c1", "note": "(single isomer, unassigned) [Example 1092 E1]", "values": [
      {"measurement": "IC50", "result": "< 0.005", "unit": "µM"}
    ]},
    {"compound": "CCC(CC(=O)O)c1cc(F)c(N(CC(C)C)CC(C)C)c(NC(=O)Cc2ccc(Cl)cc2F)c1", "note": "(single isomer, unassigned) [Example 1092 E2]", "values": [
      {"measurement": "IC50", "result": "< 0.005", "unit": "µM"}
    ]},
    {"compound": "CCC(CC(=O)O)c1ccc(N(CCC(C)C)C2CCCCC2)c(NC(=O)Cc2ccc(C)cc2)c1", "note": "(single isomer, unassigned) [Example 1099 E1]", "values": [
      {"measurement": "IC50", "result": "< 0.05", "unit": "µM"}
    ]},
    {"compound": "CCC(CC(=O)O)c1ccc(N(CCC(C)C)C2CCCCC2)c(NC(=O)Cc2ccc(C)cc2)c1", "note": "(single isomer, unassigned) [Example 1099 E2]", "values": [
      {"measurement": "IC50", "result": "< 0.05", "unit": "µM"}
    ]},
    {"compound": "CCC(CC(=O)O)c1cc(F)c(N(CC(C)C)C2CCCCC2)c(NC(=O)Cc2ccc(C)cc2)c1", "note": "(single isomer, unassigned) [Example 1101 E1]", "values": [
      {"measurement": "IC50", "result": "< 0.005", "unit": "µM"}
    ]},
    {"compound": "CCC(CC(=O)O)c1cc(F)c(N(CC(C)C)C2CCCCC2)c(NC(=O)Cc2ccc(C)cc2)c1", "note": "(single isomer, unassigned) [Example 1101 E2]", "values": [
      {"measurement": "IC50", "result": "< 0.005", "unit": "µM"}
    ]},
    {"compound": "CCC(CC(=O)O)c1ccc(N(CC(C)C)CC(C)C)c(NC(=O)Cc2ccc(C)cc2)c1", "note": "(single isomer, unassigned) [Example 1103 E2, 3-(4-(Diisobutylamino)-3-(2-(p-tolyl)acetamido)phenyl)pentanoic Acid]", "values": [
      {"measurement": "IC50", "result": "< 0.005", "unit": "µM"}
    ]},
    {"compound": "CCOc1ccc(NC(=O)Nc2cc(C(COC)CC(=O)O)cc(F)c2N(CC(C)C)CC(C)C)cc1", "note": "(single isomer, unassigned) [Example 1185, 3-(4-(diisobutylamino)-3-(3-(4-ethoxyphenyl)ureido)-5-fluorophenyl)-4-methoxybutanoic acid]", "values": [
      {"measurement": "IC50", "result": "< 0.005", "unit": "µM"}
    ]},
    {"compound": "COCC(CC(=O)O)c1cc(F)c(N(CC(C)C)CC(C)C)c(NC(=O)Nc2ccc(OC(F)(F)F)cc2)c1", "note": "(single isomer, unassigned) [Example 1197, 3-(4-(Diisobutylamino)-3-fluoro-5-(3-(4-(trifluoromethoxy)phenyl)ureido)phenyl)-4-methoxybutanoic Acid]", "values": [
      {"measurement": "IC50", "result": "< 0.05", "unit": "µM"}
    ]},
    {"compound": "COCC(CC(=O)O)c1ccc(N(CC(C)C)C2CCCCC2)c(NC(=O)Cc2cc(C)on2)c1", "note": "(single isomer, unassigned) [Example 1238, 3-(4-(Cyclohexyl(isobutyl)amino)-3-(2-(5-methylisoxazol-3-yl)acetamido)phenyl)-4-methoxybutanoic Acid]", "values": [
      {"measurement": "IC50", "result": "> 0.05", "unit": "µM"}
    ]},
    {"compound": "CCN(c1ccc(C(COC(C)C)CC(=O)O)cc1Nc1ccc(F)cc1)C1CCS(=O)(=O)CC1", "note": "(stereo not drawn) [Example 316]", "values": [
      {"measurement": "IC50", "result": "< 0.05", "unit": "µM"}
    ]},
    {"compound": "CCN(c1ccc(C(COC(C)C)CC(=O)O)cc1Nc1ccc(F)cc1)C1CCS(=O)(=O)CC1", "note": "(stereo not drawn) [Example 336]", "values": [
      {"measurement": "IC50", "result": "< 0.05", "unit": "µM"}
    ]},
    {"compound": "CCC(CC(=O)O)c1ccc(N2CCCC2C(C)(C)F)c(NC(=O)Nc2ccc(OC)cc2F)c1", "note": "[Example 787, 3-(3-(3-(2-fluoro-4-methoxyphenyl)ureido)-4-((S)-2-(2-(fluoropropan-2-yl)pyrrolidin-1-yl)phenyl)pentanoic acid]", "values": [
      {"measurement": "IC50", "result": "> 0.05", "unit": "µM"}
    ]},
    {"compound": "(+/−)-Methyl 3-(4-(isobutyl((1 r,4r)-4-methoxycyclohexyl)amino)-3-(3-(p-tolyl)ureido)phenyl)-4-methoxybutanoate [Example 1005]", "values": [
      {"measurement": "IC50", "result": "> 0.05", "unit": "µM"}
    ]}
  ]
}
